# “Also recorded” adds a separate entry of the source.
# How the values were obtained:
# receptor = details: cited from earlier work
# [1] = Example 1: plasma hormone concentrations (radioimmunoassays)
# Excerpt: The purpose of this study was to determine the effect manipulating blood levels of thyroid hormones and/or growth hormone on growth performance and body composition of broiler chickens. […] Purified natural chicken growth hormone (ncGH) was obtained from the Research and Education Center, Harbor-UCLA Medical Center, Torrance, Calif. […] The premix (200 g) was then used to prepare 50 kg batches of each experimental diet according to the formula for broiler-finisher ration described in Table 1. The diet containing 0.5% PTU was prepared by mixing 250 g of PTU into 49.75 kg of the basal ration (Table 1).
# Broiler cockerels (Ross X Arbor Acre strain) were raised to 3 weeks-of-age in a battery-brooder and then transferred to wire grow-out cages (4 birds/pen) held in two controlled-environment rooms (10 pens/room). Beginning at 3 weeks of age, eight birds (2 pens of 4 birds) were randomly assigned to each of 10 treatments. The chickens were provided the experimental diets and water ad libitum. […] For injection, the ncGH was reconstituted in sterile 0.025M sodium bicarbonate buffer (pH 9.8). The 10 treatments were administered for 21 days (i.e., from 3 to 6 weeks of age).
# Measurement of body weight and feed consumption at weekly intervals allowed calculation of the average daily gain (ADG, g/bird/day), average daily feed consumption (ADFC, g/bird/day) and the feed-to-gain ratio (FIG, kg feed/kg gain) over the 21 day experimental period. Blood samples were taken each week (4, 5, and 6 weeks) just before (pre-injection) and 4 hours post-injection of ncGH. […] At the conclusion of the study, birds were killed and the carcasses frozen for proximate analysis. The frozen carcasses were ground in a meat grinder and aliquots of each ground carcass taken for determination of moisture, protein, fat and ash by established analytical procedures (Official Method of Analysis, Edition 13, W. Horwitz ed., Association of Official Analytical Chemist, Washington, D.C., 1980). Body composition data are presented as a percent of live weight at 6 weeks-of-age. Least squares regression analysis was used to test for significant differences (P<0.05) due treatment.
# [2] = 0.25 to 1 ppm in feed throughout entire growth cycle; cited from earlier work
# [3] = Example 3: plasma hormone levels (RIA); type: in vivo, broiler cockerels
# Procedure: Day-old broiler cockerels were randomly assigned to 24 pens (5 birds/pen) in a battery brooder. The total duration of the bird management period lasted from 7 to 8 weeks. […] 3, four birds from each pen were transferred to wire grow-out cages. […] Body weight and feed consumption were determined at weekly intervals. A 5 ml blood sample was obtained from each bird at week no. 7 and stored at -20° C. until assayed for plasma hormones.
# Equilibrium, double antibodies radioimmunoassays (RIA) were used to determine plasma levels of chicken growth hormone (GH) according to Proudman, Proc. Soc. […] Plasma insulin was quantified by using nonequilibrium RIA described by McMurtry et al., Poult. […] Plasma level of insulin-like growth factor-I (IGF-I) was determined by heterologous RIA in accordance with McGuinness.
# [4] = Example 2: growth and feed efficiency, dietary T3 and ncGH injection; type: in vivo, broiler cockerels (Ross X Arbor Acre)
# Procedure: (§1) Forty-eight 3-week-old broiler cockerels (Ross X Arbor Acre) were randomly divided into four treatment groups that contained three pens of four birds. The birds were housed in a controlled-environment room under a 20 hour light/4 hour dark cycle with feed and water provided ad libitum.
# (§2) The preparation of ncGH used in this study was from the same lot used in Example 1.
# (§3) Body weights and feed consumption was determined at weekly intervals although the ADG, ADFC and FTG ratio was determined over the 21 day period. […] At the conclusion of the study (6 weeks-of-age), birds were killed and the abdominal fat removed and weighed. The liver and abdominal fat were returned to the carcass which was frozen for proximate analysis as described in […]
# [5] = Example 2: plasma hormone concentrations; type: in vivo, broiler cockerels (Ross X Arbor Acre); details: vs CF+BI or CF+GH treatment
# Procedure: as §1, §2, §3
smiles,measurement,setting,value
"N[C@@H](Cc1cc(I)c(Oc2ccc(O)c(I)c2)c(I)c1)C(=O)O [T3, 3,3',5-triiodo-L-thyronine]",metabolic activity of thyroid hormones,receptor,most active compounds of formula I
same,I/G Molar Ratio,"[1]; Group 1, dietary, N = 24",0.51
same,plasma Glucagon (G),"[1]; Group 1, dietary, N = 24",491 pg/mL
same,plasma Insulin (I),"[1]; Group 1, dietary, N = 24",409 pg/mL
same,effect on insulin and glucagon secretion,[1]; dietary T3 / elevated plasma T3,inhibit insulin secretion whereas glucagon secretion is enhanced; also recorded: depresses insulin secretion while glucagon secretion is increased
same,"plasma I/G molar ratio, fold lower",[1]; vs CF birds (P<0.05),4.3 times
same,"plasma GH level, reduction",[1]; vs CF treatment,32%
same,"plasma T4 level, reduction",[1]; vs average of CF and TRH treatments (P<0.05),58%
same,"body weight gain, feed efficiency / growth performance",[2],reduced body weight gain and feed efficiency
same,"glucagon secretion, increase",[3]; 0.25 ppm,16%
same,"plasma T3 level, fold elevation",[3]; 0.25 ppm,2.1 fold
same,"plasma insulin, reduction",[3]; 0.25 ppm,27%
same,"I/G ratio, reduction",[3]; 0.25 ppm (p<0.05),31%
same,I/G Ratio (molar),[3]; 0.25 ppm of feed,0.81 ± .20
same,plasma GH,[3]; 0.25 ppm of feed,2.0 ± 0.4 ng/mL
same,plasma Glucagon,[3]; 0.25 ppm of feed,656 ± 75 pg/mL
same,plasma IGF-I,[3]; 0.25 ppm of feed,100.7 ± 2.9 ng eg/ml
same,plasma Insulin,[3]; 0.25 ppm of feed,772 ± 155 pg/mL
same,plasma T4,[3]; 0.25 ppm of feed,6.3 ± 0.6 ng/mL
same,effect on plasma IGF-1 level,[3]; 0.25 to 4.0 ppm,only reduced (p<0.05) by the 4.0 ppm level
same,"I/G molar ratio, reduction",[3]; 1 or 4 ppm (p<0.05),70-76%
same,"glucagon secretion, increase",[3]; 1.0 ppm (p<0.05),44%
same,"plasma insulin, reduction",[3]; 1.0 ppm (p<0.05),60%
same,I/G Ratio (molar),[3]; 1.0 ppm of feed,0.35 ± .06
same,plasma GH,[3]; 1.0 ppm of feed,2.1 ± 0.4 ng/mL
same,plasma Glucagon,[3]; 1.0 ppm of feed,816 ± 64 pg/mL
same,plasma IGF-I,[3]; 1.0 ppm of feed,97.7 ± 6.3 ng eg/ml
same,plasma Insulin,[3]; 1.0 ppm of feed,426 ± 65 pg/mL
same,plasma T4,[3]; 1.0 ppm of feed,6.2 ± 0.6 ng/mL
same,"plasma T3 level, fold elevation",[3]; 4 ppm,12.6 fold
same,"glucagon secretion, increase",[3]; 4.0 ppm (p<0.05),46%
same,"plasma insulin, reduction",[3]; 4.0 ppm (p<0.05),68%
same,Plasma T3 level (control group = 100% of normal),[3]; 4 ppm in feed,~ 1254%
same,I/G Ratio (molar),[3]; 4.0 ppm of feed,0.28 ± .08
same,plasma GH,[3]; 4.0 ppm of feed,1.8 ± 0.2 ng/mL
same,plasma Glucagon,[3]; 4.0 ppm of feed,824 ± 61 pg/mL
same,plasma IGF-I,[3]; 4.0 ppm of feed,58.8 ± 8.2 ng eg/ml
same,plasma Insulin,[3]; 4.0 ppm of feed,344 ± 92 pg/mL
same,plasma T4,[3]; 4.0 ppm of feed,5.1 ± 0.8 ng/mL
same,effect on plasma GH levels,[3]; all dietary T3 levels,decreased (p<0.05); also recorded: decrease plasma GH levels
same,"plasma T4 level, decrease",[3]; regardless of dose level (p<0.05),67%
same,ADFC,"[4]; 1 ppm T3 and/or ncGH 100 μg/kg/day, 21 days",117.9 ± 0.8 g/bird/day
same,ADG,"[4]; 1 ppm T3 in feed and/or ncGH 100 μg/kg/day i.m., 3 to 6 weeks, mean ±SEM of 3 pens",52.6 ± 1.0 g/bird/day
same,"effect on ADG, ADFC and FTG ratio",[4]; 21 days,not affected
same,"average plasma T3 level, fold higher",[5],2.3 times
